The NIST ThermoML archive (doi:10.1021/je060271a)
Numbers after ± are expanded uncertainties.

Conditions: 283.15 K, Liquid, Vibrating tube method

CCCCC(=O)OCC(COC(=O)CCCC)(COC(=O)CCCC)COC(=O)CCCC [pentaerythritol tetrapentanoate]
mass density (2596 kPa): 1028.7 ± 1.2 kg/m3
mass density (2607.6 kPa): 1028.6 ± 1.2 kg/m3
mass density (2619.2 kPa): 1028.8 ± 1.2 kg/m3
mass density (2631.2 kPa): 1028.6 ± 1.2 kg/m3
mass density (2645.8 kPa): 1028.6 ± 1.2 kg/m3
mass density (2657.4 kPa): 1028.6 ± 1.2 kg/m3
mass density (2670 kPa): 1028.7 ± 1.2 kg/m3
mass density (2684.8 kPa): 1028.6 ± 1.2 kg/m3
mass density (2697.1 kPa): 1028.5 ± 1.2 kg/m3
mass density (2708.7 kPa): 1028.6 ± 1.2 kg/m3
mass density (2721.4 kPa): 1028.6 ± 1.2 kg/m3
mass density (2736.6 kPa): 1028.8 ± 1.2 kg/m3
mass density (2749.1 kPa): 1028.6 ± 1.2 kg/m3
mass density (2762 kPa): 1028.6 ± 1.2 kg/m3
mass density (2777.4 kPa): 1028.7 ± 1.2 kg/m3
mass density (2790.4 kPa): 1028.7 ± 1.2 kg/m3
mass density (2803.7 kPa): 1028.6 ± 1.2 kg/m3
mass density (2819.5 kPa): 1028.6 ± 1.2 kg/m3
mass density (2833.1 kPa): 1028.7 ± 1.2 kg/m3
mass density (2846.4 kPa): 1028.7 ± 1.2 kg/m3
mass density (2860.3 kPa): 1028.7 ± 1.2 kg/m3
mass density (2874 kPa): 1028.8 ± 1.2 kg/m3
mass density (2891 kPa): 1028.7 ± 1.2 kg/m3
mass density (2904.7 kPa): 1028.6 ± 1.2 kg/m3
mass density (2918.7 kPa): 1028.8 ± 1.2 kg/m3
mass density (2935.2 kPa): 1028.8 ± 1.2 kg/m3
mass density (2949.4 kPa): 1028.8 ± 1.2 kg/m3
mass density (2963.8 kPa): 1028.8 ± 1.2 kg/m3
mass density (2978.5 kPa): 1028.7 ± 1.2 kg/m3
mass density (2995.7 kPa): 1028.9 ± 1.2 kg/m3
mass density (3010.3 kPa): 1028.8 ± 1.2 kg/m3
mass density (3025.5 kPa): 1028.8 ± 1.2 kg/m3
mass density (3042.9 kPa): 1028.9 ± 1.2 kg/m3
mass density (3057.8 kPa): 1029 ± 1.2 kg/m3
mass density (3073.4 kPa): 1028.9 ± 1.2 kg/m3
mass density (3091.7 kPa): 1028.8 ± 1.2 kg/m3
mass density (3107 kPa): 1028.9 ± 1.2 kg/m3
mass density (3122.3 kPa): 1028.9 ± 1.2 kg/m3
mass density (3138 kPa): 1029 ± 1.2 kg/m3
mass density (3156.6 kPa): 1029 ± 1.2 kg/m3
mass density (3172.7 kPa): 1028.9 ± 1.2 kg/m3
mass density (3191.8 kPa): 1028.9 ± 1.2 kg/m3
mass density (3207.9 kPa): 1029 ± 1.2 kg/m3
mass density (3224.7 kPa): 1028.9 ± 1.2 kg/m3
mass density (3241.2 kPa): 1029 ± 1.2 kg/m3
mass density (3261.6 kPa): 1029 ± 1.2 kg/m3
mass density (3276.9 kPa): 1028.9 ± 1.2 kg/m3
mass density (3297 kPa): 1028.9 ± 1.2 kg/m3
mass density (3314 kPa): 1029 ± 1.2 kg/m3
mass density (3334.8 kPa): 1029.1 ± 1.2 kg/m3
mass density (3352.3 kPa): 1029 ± 1.2 kg/m3
mass density (3369.8 kPa): 1029 ± 1.2 kg/m3
mass density (3387.8 kPa): 1029 ± 1.2 kg/m3
mass density (3405.8 kPa): 1029.1 ± 1.2 kg/m3
mass density (3427.2 kPa): 1029.1 ± 1.2 kg/m3
mass density (3444.8 kPa): 1029.1 ± 1.2 kg/m3
mass density (3463.4 kPa): 1029.2 ± 1.2 kg/m3
mass density (3485.6 kPa): 1029 ± 1.2 kg/m3
mass density (3505 kPa): 1029.1 ± 1.2 kg/m3
mass density (3523.9 kPa): 1029.1 ± 1.2 kg/m3
mass density (3543.1 kPa): 1029.2 ± 1.2 kg/m3
mass density (3562.2 kPa): 1029.1 ± 1.2 kg/m3
mass density (3585.6 kPa): 1029.1 ± 1.2 kg/m3
mass density (3605.1 kPa): 1029.2 ± 1.2 kg/m3
mass density (3625.3 kPa): 1029.2 ± 1.2 kg/m3
mass density (3645 kPa): 1029.4 ± 1.2 kg/m3
mass density (3665.5 kPa): 1029.2 ± 1.2 kg/m3
mass density (3689.4 kPa): 1029.2 ± 1.2 kg/m3
mass density (3709.5 kPa): 1029.3 ± 1.2 kg/m3
mass density (3729.7 kPa): 1029.2 ± 1.2 kg/m3
mass density (3754.5 kPa): 1029.2 ± 1.2 kg/m3
mass density (3775.8 kPa): 1029.2 ± 1.2 kg/m3
mass density (3797 kPa): 1029.3 ± 1.2 kg/m3
mass density (3821.9 kPa): 1029.4 ± 1.2 kg/m3
mass density (3843.6 kPa): 1029.4 ± 1.2 kg/m3
mass density (3865.6 kPa): 1029.3 ± 1.2 kg/m3
mass density (3887.1 kPa): 1029.4 ± 1.2 kg/m3
mass density (3913.4 kPa): 1029.2 ± 1.2 kg/m3
mass density (3935.4 kPa): 1029.2 ± 1.2 kg/m3
mass density (3957.4 kPa): 1029.4 ± 1.2 kg/m3
mass density (3984.4 kPa): 1029.5 ± 1.2 kg/m3
mass density (4007.1 kPa): 1029.3 ± 1.2 kg/m3
mass density (4030 kPa): 1029.5 ± 1.2 kg/m3
mass density (4053.3 kPa): 1029.5 ± 1.2 kg/m3
mass density (4081.1 kPa): 1029.5 ± 1.2 kg/m3
mass density (4104.4 kPa): 1029.6 ± 1.2 kg/m3
mass density (4128.5 kPa): 1029.5 ± 1.2 kg/m3
mass density (4157.3 kPa): 1029.6 ± 1.2 kg/m3
mass density (4181.3 kPa): 1029.5 ± 1.2 kg/m3
mass density (4205.4 kPa): 1029.5 ± 1.2 kg/m3
mass density (4234.9 kPa): 1029.5 ± 1.2 kg/m3
mass density (4260 kPa): 1029.6 ± 1.2 kg/m3
mass density (4284.7 kPa): 1029.5 ± 1.2 kg/m3
mass density (4314.9 kPa): 1029.7 ± 1.2 kg/m3
mass density (4340 kPa): 1029.7 ± 1.2 kg/m3
mass density (4366.5 kPa): 1029.7 ± 1.2 kg/m3
mass density (4393.7 kPa): 1029.7 ± 1.2 kg/m3
mass density (4426 kPa): 1029.7 ± 1.2 kg/m3
mass density (4453.1 kPa): 1029.7 ± 1.2 kg/m3
mass density (4480.4 kPa): 1029.8 ± 1.2 kg/m3
mass density (4507.9 kPa): 1029.8 ± 1.2 kg/m3
mass density (4542.4 kPa): 1029.9 ± 1.2 kg/m3
mass density (4572 kPa): 1029.7 ± 1.2 kg/m3
mass density (4602.1 kPa): 1029.7 ± 1.2 kg/m3
mass density (4632.8 kPa): 1029.7 ± 1.2 kg/m3
mass density (4669.8 kPa): 1029.8 ± 1.2 kg/m3
mass density (4701.7 kPa): 1030 ± 1.2 kg/m3
mass density (4733 kPa): 1029.9 ± 1.2 kg/m3
mass density (4763.3 kPa): 1029.9 ± 1.2 kg/m3
mass density (4792.9 kPa): 1029.8 ± 1.2 kg/m3
mass density (4797.4 kPa): 1029.9 ± 1.2 kg/m3
mass density (4798.1 kPa): 1029.9 ± 1.2 kg/m3
mass density (4800.3 kPa): 1029.9 ± 1.2 kg/m3
mass density (4801 kPa): 1029.8 ± 1.2 kg/m3
mass density (4803.1 kPa): 1030 ± 1.2 kg/m3
mass density (4805.2 kPa): 1029.9 ± 1.2 kg/m3
mass density (4805.4 kPa): 1030 ± 1.2 kg/m3
mass density (4807.6 kPa): 1029.9 ± 1.2 kg/m3
mass density (4808.8 kPa): 1029.9 ± 1.2 kg/m3
mass density (4810.7 kPa): 1029.9 ± 1.2 kg/m3
mass density (4811.8 kPa): 1029.9 ± 1.2 kg/m3
mass density (4812.5 kPa): 1029.9 ± 1.2 kg/m3
mass density (4813.1 kPa): 1029.9 ± 1.2 kg/m3
mass density (4813.3 kPa): 1030 ± 1.2 kg/m3
mass density (4813.7 kPa): 1029.9 ± 1.2 kg/m3
mass density (4814 kPa): 1030 ± 1.2 kg/m3
mass density (4814.2 kPa): 1029.9 ± 1.2 kg/m3
mass density (4814.4 kPa): 1029.9 ± 1.2 kg/m3
mass density (4819 kPa): 1030 ± 1.2 kg/m3
mass density (4836.2 kPa): 1029.9 ± 1.2 kg/m3
mass density (4855.7 kPa): 1029.9 ± 1.2 kg/m3
mass density (4877.5 kPa): 1029.9 ± 1.2 kg/m3
mass density (4899 kPa): 1030 ± 1.2 kg/m3
mass density (4924.1 kPa): 1030 ± 1.2 kg/m3
mass density (4945.9 kPa): 1029.9 ± 1.2 kg/m3
mass density (4969.3 kPa): 1030 ± 1.2 kg/m3
mass density (4990.9 kPa): 1030 ± 1.2 kg/m3
mass density (5013.2 kPa): 1030 ± 1.2 kg/m3
mass density (5040.4 kPa): 1030 ± 1.2 kg/m3
mass density (5062.7 kPa): 1030 ± 1.2 kg/m3
mass density (5085.9 kPa): 1030 ± 1.2 kg/m3
mass density (5113.1 kPa): 1030.1 ± 1.2 kg/m3
mass density (5136.1 kPa): 1030.1 ± 1.2 kg/m3
mass density (5159.8 kPa): 1030 ± 1.2 kg/m3
mass density (5188.5 kPa): 1030.1 ± 1.2 kg/m3
mass density (5213.2 kPa): 1030.2 ± 1.2 kg/m3
mass density (5238.3 kPa): 1030.2 ± 1.2 kg/m3
mass density (5263.4 kPa): 1030 ± 1.2 kg/m3
mass density (5289.6 kPa): 1030.3 ± 1.2 kg/m3
mass density (5314.9 kPa): 1030.1 ± 1.2 kg/m3
mass density (5344.8 kPa): 1030.1 ± 1.2 kg/m3
mass density (5370.4 kPa): 1030.2 ± 1.2 kg/m3
mass density (5395.8 kPa): 1030.2 ± 1.2 kg/m3
mass density (5426.8 kPa): 1030.1 ± 1.2 kg/m3
mass density (5453.3 kPa): 1030.3 ± 1.2 kg/m3
mass density (5479.6 kPa): 1030.3 ± 1.2 kg/m3
mass density (5512.1 kPa): 1030.3 ± 1.2 kg/m3
mass density (5539.8 kPa): 1030.4 ± 1.2 kg/m3
mass density (5567.4 kPa): 1030.3 ± 1.2 kg/m3
mass density (5595.3 kPa): 1030.4 ± 1.2 kg/m3
